Assay results: publication PMC4436593, “Endoplasmic reticulum stress-independent activation of unfolded protein response kinases by a small molecule ATP-mimic” (eLife, 2015)

Experiments:
PERK (535–1093 Δ660–868) = molecular target: T1, PERK (535–1093 Δ660–868) (Homo sapiens, UniProt Q9NZJ5, DEL660-868); assay: In vitro PERK activation assay (rate of eIF2α phosphorylation by dephosphorylated tag-free PERK cytosolic domain); format: biochemical
T1 construct: GST (N, cleaved yes); made in house; host or cells: E. coli BL21 star (DE3), co-expressed with lambda phosphatase
T1 sequence (Q9NZJ5 with tags, fused parts or gaps DEL660-868): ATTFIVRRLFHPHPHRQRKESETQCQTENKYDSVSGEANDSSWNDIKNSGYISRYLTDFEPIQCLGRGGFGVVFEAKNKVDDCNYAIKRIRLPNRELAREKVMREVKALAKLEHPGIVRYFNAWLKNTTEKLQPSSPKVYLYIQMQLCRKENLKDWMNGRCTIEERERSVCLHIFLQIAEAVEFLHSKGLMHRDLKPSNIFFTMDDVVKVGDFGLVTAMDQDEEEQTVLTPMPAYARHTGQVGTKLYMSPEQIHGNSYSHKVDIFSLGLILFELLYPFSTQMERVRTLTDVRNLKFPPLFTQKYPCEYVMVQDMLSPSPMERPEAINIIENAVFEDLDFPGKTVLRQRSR
Description: To address directly whether PERK activation resulted from IPA binding to PERK itself, we recombinantly expressed the cytosolic portion of human PERK and eIF2α, the only known PERK substrate, and reconstituted the phosphorylation reaction in vitro. To this end, the cytosolic portion of PERK was dephosphorylated and then proteolytically severed and chromatographically separated from its glutathione S-transferase tag, known to promote-constitutive multimerization. The resulting PERK cytosolic fragment was responsive to activation, by contrast to the constitutively active, phosphorylated PERK-GST fusion protein assayed in Figure 4—figure supplement 1.
Full-length cytosolic human PERK was codon-optimized for E. coli expression by Genewiz Inc. A construct was then cloned into a Pgex-6p-2 vector for expression using two rounds of In-Fusion cloning (Clontech) (535–1093 Δ660–868). The cytosolic portion of PERK, lacking the unstructured loop region (amino acids 535–1093 Δ660–868) was then co-expressed with a tagless lambda phosphatase to produce a fully dephosphorylated PERK protein in BL21 star (DE3) (Life Technologies) ([Dar et al., 2008]). Cells were grown to an OD600 of 0.5 before induction with 0.1 mM IPTG at 15°C for 25 hr. Cells were harvested and lysed using AVESTIN Emulsiflex-C3 in a buffer containing 50 mM Tris-HCl, pH 8.0, 500 mM NaCl, 10% glycerol, 5 mM TCEP (buffer A), and EDTA-free COMPlete protease inhibitor cocktail (Roche). Lysate was cleared by centrifugation at 100,000×g before batch binding to a GST-Sepharose resin. The resin was washed 5× times with buffer A, and on-column tag cleavage was preformed using PreScission protease (GE Healthcare). The protein was loaded onto a HiTrap Q HP column to remove remaining protease. The PERK (535–1093 Δ660–868) protein was then concentrated and fractionated on a Superdex 200 GL (GE Healthcare) to remove uncleaved GST-PERK protein.
PERK activation was measured using PERK (535–1093 Δ660–868) in a buffer containing 20 mM Tris-HCl, 150 mM NaCl, 4 mM MgCl2, 5 mM TCEP, 1% glycerol, pH 8.0. PERK concentration was 1 μM, and activity was measured at 30°C. PERK was pre-incubated with 50 μM of cold ATP in the presence or absence of IPA or IPAx. The reaction was then initiated by adding S. cerevisiae eIF2α (1–180) and 0.2 mCi γ-[^32P]-ATP. The reaction was monitored over a time course of 30 min, during which 1/6 of the reaction volume was removed at 0.5, 1, 5, 10, 20, and 30 min and stopped in Laemmli buffer supplemented with 50 mM EDTA. […] Gels were quantified using ImageQuant software and data were processed using SigmaPlot software package. Rates were determined using non-linear regression. Experiments were performed 3 times, and mean errors were determined.

[1] = molecular target: T2, PERK cytosolic domain (535–1093 Δ660–868) (Homo sapiens, UniProt Q9NZJ5, DEL660-868); assay: In vitro PERK cross-linking assay; format: biochemical; settings: PERK 2 μM; IPAx 50 μM
T2 construct: GST (N, cleaved yes); made in house; host or cells: E. coli BL21 star (DE3), co-expressed with lambda phosphatase
T2 sequence (Q9NZJ5 with tags, fused parts or gaps DEL660-868): T1 sequence (Q9NZJ5 with tags, fused parts or gaps DEL660-868)
Description: A solution of PERK cytosolic domain (535–1093 Δ660–868) (2 μM) was incubated with IPA or IPAx for 15 min before the addition of 250 μM of the amino group-reactive cross-linking agent bis[sulfosuccinimidyl] […] (BS2g-d0, Thermo Scientific). After 30-min incubation at room temperature Tris-HCl pH 7.5 was added to a final concentration of 55 mM. Samples were then boiled in Laemmli sample buffer and loaded into an Any kD Mini-protean TGX gel (Bio Rad). Cross-linked protein was visualized using Colloidal Coomassie G-250 stain.

[2] = system: PERK and eIF2α phosphorylation in HEK293T cells; assay: PERK mobility shift and eIF2α phosphorylation by immunoblotting in HEK293T cells; format: cell-based
Description: To evaluate effects of IPA on the PERK branch, we measured the phosphorylation state of PERK and eIF2α by Western blotting. […] We also monitored PERK activation by phosphorylation of eIF2α, detected with a phospho-eIF2α-specific antibody (Figure 3C).
Cells were lysed in 50 mM Tris-HCl, 2% SDS, 10% glycerol, 0.01% bromophenol blue, pH 6.8 supplemented with phosphatase inhibitors (Sigma) and protease inhibitors (Roche). 30 μg to 50 μg of total protein was loaded on each lane of 8% or 10% SDS-PAGE gels. The separated proteins were then transferred onto nitrocellulose membranes for immunoblotting. The following antibodies and dilutions were used: anti-β-actin 1:10,000 (A5441, Sigma), anti-total PERK at 1:1000 (C33E10, Cell Signaling Technology), anti-phospho eIF2α at 1:1000 (3597S, Cell Signaling Technology), anti-total eIF2α at 1:1000 (L57A5, Cell Signaling Technology). After overnight incubation with primary antibody, membranes were washed in PBS with 0.05% Tween and incubated in HRP-coupled secondary antibody anti-rabbit (611–1302, Rockland) or anti-mouse (610–1302, Rockland) diluted at 1:5000 in wash buffer. Immunoreactive bands were detected by chemiluminescence.

| SMILES | effect on the rate of PERK activity (PERK (535–1093 Δ660–868); IPAx 20 μM) | PERK activation in vitro (PERK (535–1093 Δ660–868); IPAx 0.3 and 0.5 μM, normalized to DMSO control) | PERK oligomerization (cross-linked dimers, trimers, tetramers) [1] | PERK or eIF2α phosphorylation ([2]; 4 hr, 1 µM) | fold change in rate of eIF2α phosphorylation by PERK (maximal activation) (PERK (535–1093 Δ660–868); 0.5 μM (500 nM) IPA, normalized to DMSO control, PERK 1 μM) [fold] | fold change in rate of eIF2α phosphorylation by PERK (inhibitory concentration) (PERK (535–1093 Δ660–868); 3 μM IPA, normalized to DMSO control) [fold] | Tm activation of PERK in the presence of compound ([2]; 4 μM IPA + Tm 2 µg/ml) | PERK phosphorylation (mobility shift), paralleled by eIF2α phosphorylation ([2]; 4 hr, 0.1, 0.5, and 1 µM) | PERK phosphorylation (mobility shift), paralleled by eIF2α phosphorylation ([2]; 4 hr, 2 and 4 μM) | reversibility of PERK inhibition (wash-out) ([2]; IPA wash-out then Tm) |
| --- | --- | --- | --- | --- | --- | --- | --- | --- | --- | --- |
| CSc1ccc(NC(=O)Nc2ccc(Nc3nccc(Nc4cc(C5CC5)n(C)n4)n3)cc2)cc1 [IPAx] | showed no effect | No activation was observed | showed no effect | did not stimulate PERK or eIF2α phosphorylation |  |  |  |  |  |  |
| CSc1ccc(NC(=O)Nc2ccc(Nc3nccc(Nc4cc(C5CC5)[nH]n4)n3)cc2)cc1 [IPA] |  |  | significantly increased PERK oligomerization |  | 3.3 | 0.31 | Tm addition did not activate PERK | induced a shift in the mobility of PERK | severely diminished or not detectable | reversible |
